The compounds below were run against T1, Met kinase (Homo sapiens, UniProt P08581) (assay: Met kinase inhibition (enzyme assay), flashplate method).
T1 construct: 6His (N); purchased Upstate 14-526; host or cells: Sf21 insect cells (S. frugiperda), baculovirus
Type: biochemical
Excerpt: Measurement of Met Kinase Activity
According to the manufacturer's data (Met, active, upstate, catalogue No. 14-526), Met kinase is expressed for the purposes of protein production in insect cells (Sf21; S. frugiperda) and subsequent affinity-chromatographic purification as “N-terminal 6His-tagged” recombinant human protein in a baculovirus expression vector.
The kinase activity can be measured using various available measurement systems. In the scintillation proximity method (Sorg et al., J. of Biomolecular Screening, 2002, 7, 11-19), the flashplate method or the filter binding test, the radioactive phosphorylation of a protein or peptide as substrate is measured using radioactively labelled ATP (^32P-ATP, ^33P-ATP). In the case of the presence of an inhibitory compound, a reduced radioactive signal, or none at all, can be detected. Furthermore, homogeneous time-resolved fluorescence resonance energy transfer (HTR-FRET) and fluoroescence polarisation (FP) technologies can be used as assay methods (Sills et al., J. of Biomolecular Screening, 2002, 191-214).
Flashplate Method (Met Kinase)
The test plates used are 96-well Flashplate® microtitre plates from Perkin Elmer (Cat. No. SMP200). The components of the kinase reaction described below are pipetted into the assay plate. The Met kinase and the substrate poly Ala-Glu-Lys-Tyr, (pAGLT, 6:2:5:1), are incubated for 3 hrs at room temperature with radioactively labelled ^33P-ATP in the presence and absence of test substances in a total volume of 100 μl. The reaction is terminated using 150 μl of a 60 mM EDTA solution. After incubation for a further 30 min at room temperature, the supernatants are filtered off with suction, and the wells are washed three times with 200 μl of 0.9% NaCl solution each time. The measurement of the bound radioactivity is carried out by means of a scintillation measuring instrument (Topcount NXT, Perkin-Elmer).
The full value used is the inhibitor-free kinase reaction. This should be approximately in the range 6000-9000 cpm. The pharmacological zero value used is staurosporin in a final concentration of 0.1 mM. The inhibitory values (IC50) are determined using the RS1_MTS program.
Kinase reaction conditions per well: • 30 μl of assay buffer • 10 μl of substance to be tested in assay buffer with 10% of DMSO • 10 μl of ATP (final concentration 1 μM cold, 0.35 μCi of ^33P-ATP) • 50 μl of Met kinase/substrate mixture in assay buffer; • (10 ng of enzyme/well, 50 ng of pAGLT/well)
50 mM HEPES • 3 mM magnesium chloride • 3 μM sodium orthovanadate • 3 mM manganese(II) chloride • 1 mM dithiothreitol (DTT)
pH=7.5 (to be set using sodium hydroxide)
60 mM Titriplex III (EDTA)
Met kinase: Upstate, Cat. No. 14-526, Stock 1 μg/10 μl; spec. activity 954 U/mg;
Poly-Ala-Glu-Lys-Tyr, 6:2:5:1: Sigma Cat. No. P1152
Pharmacological Data Met Kinase Inhibitions (Enzyme Assay)

T1 sequence (P08581 974-1390 limits assumed): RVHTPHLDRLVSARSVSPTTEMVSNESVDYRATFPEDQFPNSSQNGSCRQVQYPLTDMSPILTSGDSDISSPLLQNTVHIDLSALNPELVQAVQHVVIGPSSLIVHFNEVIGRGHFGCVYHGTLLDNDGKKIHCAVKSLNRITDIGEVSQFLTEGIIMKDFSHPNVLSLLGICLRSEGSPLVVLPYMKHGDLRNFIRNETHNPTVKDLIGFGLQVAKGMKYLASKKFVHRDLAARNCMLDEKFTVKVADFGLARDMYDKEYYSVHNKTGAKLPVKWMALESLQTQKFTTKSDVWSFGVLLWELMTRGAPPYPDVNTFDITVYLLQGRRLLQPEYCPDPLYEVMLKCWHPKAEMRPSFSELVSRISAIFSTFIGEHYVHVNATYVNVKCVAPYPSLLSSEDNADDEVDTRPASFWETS

IC50, 10 to 1000 nM:
CCOC(=O)Nc1cccc(Cn2nc(-c3cccc(C(=O)NCCO)c3)ccc2=O)c1 [A49]
CCOC(=O)Nc1cccc(Cn2nc(-c3ccc(C(=O)NCCCCN(C)C)cc3)ccc2=O)c1 [A11]
CCOC(=O)Nc1cccc(Cn2nc(-c3ccc(C(=O)NCCO)cc3)ccc2=O)c1 [A2, ethyl(3-{3-[4-(2-hydroxyethylcarbamoyl)phenyl]-6-oxo-6H-pyridazin-1-ylmethyl}phenyl)carbamate]
CCOC(=O)Nc1cccc(Cn2nc(-c3ccc(C(=O)NCCCO)cc3)ccc2=O)c1 [A5]
CCOC(=O)Nc1cccc(Cn2nc(-c3ccc(C(=O)NCCCN(C)C)cc3)ccc2=O)c1 [A14]
CCOC(=O)Nc1cccc(Cn2nc(-c3ccc(C(=O)NCCOC)cc3)ccc2=O)c1 [A3]
CCOC(=O)Nc1cccc(Cn2nc(-c3cccc(CNC(=O)CCN4CCNCC4)c3)ccc2=O)c1 [A145]
CCOC(=O)Nc1cccc(Cn2nc(-c3cccc(CC(=O)NCCCOC)c3)ccc2=O)c1 [A70]
CCOC(=O)Nc1cccc(Cn2nc(-c3ccc(CC(=O)NCCN)cc3)ccc2=O)c1 [A147]
CCOC(=O)Nc1cccc(Cn2nc(-c3cccc(C(=O)NCCCCNC(=O)OC(C)(C)C)c3)ccc2=O)c1 [A43, ethyl(3-{3-[3-(4-tert-butoxycarbonylaminobutylcarbamoyl)-phenyl]-6-oxo-6H-pyridazin-1-ylmethyl}phenyl)carbamate]
CCOC(=O)Nc1cccc(Cn2nc(-c3cccc(CC(=O)NCCOC)c3)ccc2=O)c1 [A68]
CCOC(=O)Nc1cccc(Cn2nc(-c3cccc(C(=O)NCCCOC)c3)ccc2=O)c1 [A51]
CCOC(=O)Nc1cccc(Cn2nc(-c3cccc(CNC(=O)Cc4nnn[nH]4)c3)ccc2=O)c1 [A96]
CCOC(=O)Nc1cccc(Cn2nc(-c3ccc(C(=O)NCCCOC)cc3)ccc2=O)c1 [A16]
CCOC(=O)Nc1cccc(Cn2nc(-c3cccc(CNC(=O)CN4CCN(C)CC4)c3)ccc2=O)c1 [A106]
CCOC(=O)Nc1cccc(Cn2nc(-c3cccc(CNC(=O)CN(C)C)c3)ccc2=O)c1 [A102]
CCOC(=O)Nc1cccc(Cn2nc(-c3cccc(CC(=O)NCCO)c3)ccc2=O)c1 [A72]
CCOC(=O)Nc1cccc(Cn2nc(-c3ccc(C(=O)NCCNC(C)C)cc3)ccc2=O)c1 [A21]
CCOC(=O)Nc1cccc(Cn2nc(-c3ccc(CNC(=O)CN4CCN(C(=O)OC(C)(C)C)CC4)cc3)ccc2=O)c1 [A86]
CCOC(=O)Nc1cccc(Cn2nc(-c3ccc(C(=O)NCCCCO)cc3)ccc2=O)c1 [A42]
CCOC(=O)Nc1cccc(Cn2nc(-c3ccc(CNC(=O)CN(C)C)cc3)ccc2=O)c1 [A80]
CCOC(=O)Nc1cccc(Cn2nc(-c3ccc(C(=O)NCCCCN4CCCC4)cc3)ccc2=O)c1 [A28]
CCOC(=O)Nc1cccc(Cn2nc(-c3ccc(CC(=O)NCCCN)cc3)ccc2=O)c1 [A148]
CCOC(=O)Nc1cccc(Cn2nc(-c3cccc(CNC(=O)CN4CCOCC4)c3)ccc2=O)c1 [A98]
CCOC(=O)Nc1cccc(Cn2nc(-c3cccc(CC(=O)NCCCCO)c3)ccc2=O)c1 [A71]
CCOC(=O)Nc1cccc(Cn2nc(-c3ccc(CNC(=O)CCN)cc3)ccc2=O)c1 [A131]
CCOC(=O)Nc1cccc(Cn2nc(-c3ccc(C(=O)NCCN(C)C)cc3)ccc2=O)c1 [A15]
CCOC(=O)Nc1cccc(Cn2nc(-c3ccc(C(=O)NCCN4CCCCC4)cc3)ccc2=O)c1 [A18]
CCOC(=O)Nc1cccc(Cn2nc(-c3ccc(-c4nnn[nH]4)cc3)ccc2=O)c1 [A172, ethyl(3-{6-oxo-3-[4-(1H-tetrazol-5-yl)phenyl]-6H-pyridazin-1-ylmethyl}phenyl)carbamate]
CCOC(=O)Nc1cccc(Cn2nc(-c3ccc(C(=O)NCCCN(CC)CC)cc3)ccc2=O)c1 [A25]
CCOC(=O)Nc1cccc(Cn2nc(-c3ccc(C(=O)NCCCN4CCN(C)CC4)cc3)ccc2=O)c1 [A22]
CCOC(=O)Nc1cccc(Cn2nc(-c3cccc(CNC(=O)CN4CCCCC4)c3)ccc2=O)c1 [A110]
CCOC(=O)Nc1cccc(Cn2nc(-c3ccc(CNC(=O)CCN4CCNCC4)cc3)ccc2=O)c1 [A142]
CCOC(=O)Nc1cccc(Cn2nc(-c3ccc(CO)cc3)ccc2=O)c1 [A123, ethyl{3-[3-(4-hydroxymethylphenyl)-6-oxo-6H-pyridazin-1-ylmethyl]phenyl}carbamate]
CCOC(=O)Nc1cccc(Cn2nc(-c3cccc(C(=O)NCCNC(=O)OC(C)(C)C)c3)ccc2=O)c1 [A45]
CCOC(=O)Nc1cccc(Cn2nc(-c3cccc(CC(=O)N(C)CCO)c3)ccc2=O)c1 [A67]
CCOC(=O)Nc1cccc(Cn2nc(-c3ccc(-c4noc(C)n4)cc3)ccc2=O)c1 [A163, ethyl(3-{3-[4-(5-methyl-1,2,4-oxadiazol-3-yl)phenyl]-6-oxo-6H-pyridazin-1-ylmethyl}phenyl)carbamate]
CCOC(=O)Nc1cccc(Cn2nc(-c3ccc(CNC(=O)CN)cc3)ccc2=O)c1 [A134]
CCOC(=O)Nc1cccc(Cn2nc(-c3ccc(CNC(=O)CCN4CCCCC4)cc3)ccc2=O)c1 [A87]
CCOC(=O)Nc1cccc(Cn2nc(-c3ccc(C(=O)N(C)CCN(CC)CC)cc3)ccc2=O)c1 [A19]
CCOC(=O)Nc1cccc(Cn2nc(-c3ccc(CN(Cc4ncc[nH]4)Cc4ncc[nH]4)cc3)ccc2=O)c1 [A171, ethyl{3-[3-(4-{[bis(1H-imidazol-2-ylmethyl)amino]methyl}-phenyl)-6-oxo-6H-pyridazin-1-ylmethyl]phenyl}carbamate]
CCOC(=O)Nc1cccc(Cn2nc(-c3cccc(CNC(=O)CNC(=O)OC(C)(C)C)c3)ccc2=O)c1 [A97]
CCOC(=O)Nc1cccc(Cn2nc(-c3cccc(C(=O)NCCN(C)C)c3)ccc2=O)c1 [A48]
CCOC(=O)Nc1cccc(Cn2nc(-c3ccc(C(=O)NCCCN4CCCC4)cc3)ccc2=O)c1 [A23]
CCOC(=O)Nc1cccc(Cn2nc(-c3cccc(CO)c3)ccc2=O)c1 [A122, ethyl{3-[3-(3-hydroxymethylphenyl)-6-oxo-6H-pyridazin-1-ylmethyl]phenyl}carbamate]
CCOC(=O)Nc1cccc(Cn2nc(-c3cccc(C(=O)NCCCCO)c3)ccc2=O)c1 [A53]
CCOC(=O)Nc1cccc(Cn2nc(-c3ccc(C(=O)NCCCN)cc3)ccc2=O)c1 [A130]

Reference: patent US8367668B2, “Pyridazinone derivatives” (Merck Patent Gesellschaft mit Beschränkter Haftung, priority 2007, dated 2013)
